From ChEMBL document CHEMBL3785013, “Novel morpholinoquinoline nucleus clubbed with pyrazoline scaffolds: Synthesis, antibacterial, antitubercular and antimalarial activities” (Eur J Med Chem, 2016) come the findings set out here.

As usually defined, the MIC is the lowest concentration that inhibits growth of the organism. Read a low MIC as a more susceptible organism. In general, inhibition refers to the share of the control response that was lost under treatment. The term IC50 denotes the midpoint of a concentration-inhibition curve. Higher therefore signals a need for much substance.

One data set concerns Bacillus subtilis. As to the kind of experiment: Antibacterial activity against Bacillus subtilis MTCC 441 after 24 to 48 hrs by broth microdilution method. The data set is classed as functional. For orientation: In broth dilution the organism is exposed to a series of concentrations in liquid medium.
The subject of a further data set is Candida albicans. As to the kind of experiment: Antifungal activity against Candida albicans MTCC 227 after 24 to 48 hrs by broth microdilution method. It counts as functional.
The subject of data set [1] is Mycobacterium tuberculosis. As to the kind of experiment: Antituberculosis activity against Mycobacterium tuberculosis H37Rv after 2 to 4 weeks by Lowensteine-Jensen method. The data set is classed as functional.
The test system of data set [2] is Mycobacterium tuberculosis. As to the kind of experiment: Antituberculosis activity against Mycobacterium tuberculosis H37Rv at 250 ug/ml incubated for 24 hrs measured after 2 to 4 weeks by Lowensteine-Jensen method. It counts as functional.
For another data set, the system named is Plasmodium falciparum. As to the kind of experiment: Antimalarial activity against Plasmodium falciparum after 48 hrs. The data set is classed as functional, organism-based.
For data set [3], the system named is Schizosaccharomyces pombe. As to the kind of experiment: Cytotoxicity against Schizosaccharomyces pombe at 2.5 to 12.5 ug/ml after 17 hrs by trypan blue exclusion method. To be noted: in vivo. It counts as organism-based.
The next data set relates to Vibrio cholerae. As to the kind of experiment: Antibacterial activity against Vibrio cholerae MTCC 3906 after 24 to 48 hrs by broth microdilution method. The data set is classed as functional.
The test system of another data set is Clostridium tetani. As to the kind of experiment: Antibacterial activity against Clostridium tetani MTCC 449 after 24 to 48 hrs by broth microdilution method. The data set is classed as functional.
In another data set the test system is Escherichia coli. As to the kind of experiment: Antibacterial activity against Escherichia coli MTCC 443 after 24 to 48 hrs by broth microdilution method. The data set is classed as functional.
The test system of a further data set is Aspergillus fumigatus. As to the kind of experiment: Antifungal activity against Aspergillus fumigatus MTCC 3008 after 24 to 48 hrs by broth microdilution method. It counts as functional.
A further data set concerns Salmonella typhi. As to the kind of experiment: Antibacterial activity against Salmonella typhi MTCC 98 after 24 to 48 hrs by broth microdilution method. It counts as functional, Salmonella enterica subsp. enterica serovar Typhi. The note with it: Salmonella enterica.
A further data set relates to Streptococcus pneumoniae. As to the kind of experiment: Antibacterial activity against Streptococcus pneumoniae MTCC 1936 after 24 to 48 hrs by broth microdilution method. The data set is classed as functional.

SMILES strings stand for the structures. ≈ marks a conversion by molar mass, not a printed value.

As for `Fc1ccc(N2N=C(c3ccc(Br)cc3)CC2c2cc3ccccc3nc2N2CCOCC2)cc1` (stereo not drawn), the MIC was 940 µM (≈ 500 µg/mL) in the data set on Bacillus subtilis; 470 µM (≈ 250 µg/mL) against Candida albicans; 47 µM (≈ 25 µg/mL) in [1]; 470 µM (≈ 250 µg/mL) in the data set with Vibrio cholerae; 188 µM (≈ 99.9 µg/mL) against Clostridium tetani; 117 µM (≈ 62.2 µg/mL) in the data set on Escherichia coli. Besides, the MIC with Aspergillus fumigatus is 940 µM (≈ 500 µg/mL); against Salmonella typhi it was 376 µM (≈ 200 µg/mL); in the data set on Streptococcus pneumoniae, 188 µM (≈ 99.9 µg/mL). In addition, the inhibition at 250 µg/mL in data set [2] turned out to be 95%. Further, the midpoint of inhibition with Plasmodium falciparum, the IC50, lay at 15 nM. Also, the Activity result in data set [3] is reported as “Non-toxic”.
`O=CN1N=C(c2ccc(Br)cc2)CC1c1cc2ccccc2nc1N1CCOCC1` (stereo not drawn): the MIC was 214 µM (≈ 99.6 µg/mL) against Bacillus subtilis; 537 µM (≈ 250 µg/mL) with Candida albicans; 214 µM (≈ 99.6 µg/mL) with Vibrio cholerae; 429 µM (≈ 200 µg/mL) against Clostridium tetani; 214 µM (≈ 99.6 µg/mL) in the data set on Escherichia coli; 1070 µM (≈ 500 µg/mL) in the data set with Aspergillus fumigatus. Besides, the MIC against Salmonella typhi stood at 134 µM (≈ 62.4 µg/mL); against Streptococcus pneumoniae, 537 µM (≈ 250 µg/mL). Besides, the inhibition at 250 µg/mL in data set [2] is 32%. The compound also yielded an IC50 with Plasmodium falciparum of 40 nM. Moreover, the Activity entry in data set [3] is given as “Non-toxic”.
Consider `CC(=O)N1N=C(c2ccc(Br)cc2)CC1c1cc2ccccc2nc1N1CCOCC1` (stereo not drawn), for which the MIC came out at 1040 µM (≈ 500 µg/mL) against Bacillus subtilis; 2090 µM (≈ 1000 µg/mL) in the data set on Candida albicans; 1040 µM (≈ 500 µg/mL) in the data set with Vibrio cholerae; 208 µM (≈ 99.7 µg/mL) with Clostridium tetani; 521 µM (≈ 250 µg/mL) in the data set on Escherichia coli; 208 µM (≈ 99.7 µg/mL) against Aspergillus fumigatus. Moreover, the MIC in the data set with Salmonella typhi came to 1040 µM (≈ 500 µg/mL); in the data set on Streptococcus pneumoniae, 417 µM (≈ 200 µg/mL). For the same compound, at 250 µg/mL the inhibition in data set [2] was 29%. The compound also had an IC50 in the data set on Plasmodium falciparum of 18 nM. Also, in [3], the Activity result was “Toxic”.
`O=CN1N=C(c2ccc(Cl)cc2)CC1c1cc2ccccc2nc1N1CCOCC1` (stereo not drawn): the MIC against Bacillus subtilis amounted to 1190 µM (≈ 500 µg/mL); against Candida albicans, 2380 µM (≈ 1000 µg/mL); in [1] it was 59 µM (≈ 24.8 µg/mL); against Vibrio cholerae, 237 µM (≈ 99.8 µg/mL); against Clostridium tetani it was 475 µM (≈ 200 µg/mL); against Escherichia coli, 237 µM (≈ 99.8 µg/mL). Besides, the MIC against Aspergillus fumigatus is above 2380 µM; in the data set with Salmonella typhi it was 1190 µM (≈ 500 µg/mL); with Streptococcus pneumoniae, 148 µM (≈ 62.3 µg/mL). In data set [2], the inhibition at 250 µg/mL was 94%. In the data set with Plasmodium falciparum, this compound gave an IC50 of 28 nM. Further, the Activity entry in data set [3] is “Toxic”.
`NC(=S)N1N=C(c2ccc(Br)cc2)CC1c1cc2ccccc2nc1N1CCOCC1` (stereo not drawn): the MIC with Bacillus subtilis was 402 µM (≈ 200 µg/mL); in the data set with Candida albicans it was above 2010 µM; in data set [1], 201 µM (≈ 99.8 µg/mL); against Vibrio cholerae, 201 µM (≈ 99.8 µg/mL); against Clostridium tetani, 201 µM (≈ 99.8 µg/mL); against Escherichia coli, 201 µM (≈ 99.8 µg/mL). The MIC in the data set on Aspergillus fumigatus amounted to 1010 µM (≈ 500 µg/mL); against Salmonella typhi, 402 µM (≈ 200 µg/mL); against Streptococcus pneumoniae, 402 µM (≈ 200 µg/mL). For the same compound, the inhibition at 250 µg/mL in data set [2] worked out at 90%. Moreover, the IC50 in the data set on Plasmodium falciparum was found to be 44 nM. In addition, in data set [3], the Activity result is “Non-toxic”.
